Data from the NIST ThermoML archive (doi:10.1021/je200038n).

Test: wn = mass fraction of the nth substance listed
Conditions: 3000 kPa, Liquid; for mass density: Vibrating tube method; for viscosity: Moving piston method

N#C[S-].[Na+] [sodium thiocyanate] + N
Conditions | mass density [kg/m3] | viscosity [mPa·s]
275.2 K, w2 = 0.8921 | 699.9 | –
275.4 K, w2 = 0.8921 | – | 0.25
279.3 K, w2 = 0.6824 | 844 | –
279.4 K, w2 = 0.614 | 888.8 | 1.14
279.4 K, w2 = 0.6824 | – | 0.7
279.4 K, w2 = 0.797 | 761.7 | 0.37
279.5 K, w2 = 0.4998 | 959.3 | 2.75
283.8 K, w2 = 0.6824 | 839 | –
283.9 K, w2 = 0.797 | 756.4 | –
284 K, w2 = 0.614 | 884.9 | 1.06
284 K, w2 = 0.6824 | – | 0.65
284.1 K, w2 = 0.4998 | 955.9 | 2.43
284.1 K, w2 = 0.797 | – | 0.35
284.2 K, w2 = 0.8921 | 686.6 | –
284.3 K, w2 = 0.8921 | – | 0.22
288.6 K, w2 = 0.614 | 881.6 | –
288.6 K, w2 = 0.6824 | 834 | –
288.6 K, w2 = 0.797 | 750.7 | –
288.7 K, w2 = 0.4998 | 952.2 | 2.2
288.7 K, w2 = 0.6824 | – | 0.61
288.7 K, w2 = 0.797 | – | 0.33
293.3 K, w2 = 0.614 | 878.3 | –
293.3 K, w2 = 0.6824 | 831 | 0.57
293.4 K, w2 = 0.4998 | 948.2 | 1.95
293.4 K, w2 = 0.614 | – | 0.89
293.4 K, w2 = 0.797 | 745.1 | 0.31
293.5 K, w2 = 0.8921 | 674 | 0.2
298 K, w2 = 0.614 | – | 0.83
298 K, w2 = 0.6824 | 828 | 0.52
298.1 K, w2 = 0.4998 | – | 1.73
298.1 K, w2 = 0.614 | 875.8 | –
298.2 K, w2 = 0.4998 | 944.6 | –
302.7 K, w2 = 0.797 | – | 0.28
